#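 Exposure lasted 48 hours, with cells grown in 96-well plates and compounds tested at five concentrations. Here, GI50 denotes the concentration required for 50% inhibition of growth. TGI is the concentration that stops growth completely.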
# How the values were obtained:
# Experiment in all cases: DTP human tumour cell line panel, 48 h
# SNB-75 CNS = test system: SNB-75 CNS
# SF-295 CNS = test system: SF-295 CNS
# COLO 205 colon = test system: COLO 205 colon
# SF-268 CNS = test system: SF-268 CNS
# KM12 colon = test system: KM12 colon
# OVCAR-8 ovarian = test system: OVCAR-8 ovarian
# UO-31 renal = test system: UO-31 renal
# SW-620 colon = test system: SW-620 colon
# MDA-MB-231 breast = test system: MDA-MB-231 breast
# HS 578T breast = test system: HS 578T breast
SMILES,TGI (SNB-75 CNS),TGI (SF-295 CNS),TGI (COLO 205 colon),TGI (SF-268 CNS),TGI (KM12 colon),TGI (OVCAR-8 ovarian),TGI (UO-31 renal),TGI (SW-620 colon),TGI (MDA-MB-231 breast),GI50 (MDA-MB-231 breast),GI50 (COLO 205 colon),GI50 (KM12 colon),GI50 (OVCAR-8 ovarian),GI50 (HS 578T breast),TGI (HS 578T breast),GI50 (UO-31 renal),GI50 (SW-620 colon)
Cc1ccc(C)c(N2C(=O)C(=O)C(c3nc4ccccc4s3)C(=O)C2=O)c1,> 100 µM,> 100 µM,> 100 µM,> 100 µM,> 100 µM,> 100 µM,> 100 µM,> 100 µM,–,–,–,–,–,–,–,–,–
CC(=O)Nc1ccc(S(=O)(=O)N/N=C/c2cc(I)cc([N+](=O)[O-])c2O)cc1,91.6 µM,> 100 µM,> 100 µM,> 100 µM,> 100 µM,> 100 µM,> 100 µM,> 100 µM,–,–,–,–,–,–,–,–,–
O=C(Cc1c(C(=O)Nc2ccccc2)sc(C(=O)Nc2ccccc2)c1CC(=O)Nc1ccccc1)Nc1ccccc1,> 100 µM,> 100 µM,> 100 µM,13.7 µM,> 100 µM,> 100 µM,> 100 µM,> 100 µM,–,–,–,–,–,–,–,–,–
C#CCOCCCC(=O)O,> 100 µM,> 100 µM,> 100 µM,–,–,> 100 µM,–,> 100 µM,> 100 µM,–,–,–,–,–,–,–,–
CCCCN(CCCC)C(=O)C(=O)C(C(=O)C(=O)OC)c1nc2ccccc2o1 (centres undefined),> 100 µM,> 100 µM,> 100 µM,> 100 µM,> 100 µM,> 100 µM,> 100 µM,> 100 µM,–,–,–,–,–,–,–,–,–
Cc1ccccc1C(C#N)/C(=N/NC(N)=S)C(=O)Nc1c(C)cccc1C (centres undefined),> 100 µM,> 100 µM,> 100 µM,> 100 µM,> 100 µM,> 100 µM,> 100 µM,> 100 µM,–,–,–,–,–,–,–,–,–
Cc1cc2c(cc1C)[n+](=O)c(C(=O)CC(=O)C(=O)Nc1ccccc1C)c(C)n2[O-],> 100 µM,> 100 µM,> 100 µM,> 100 µM,> 100 µM,> 100 µM,> 100 µM,> 100 µM,–,–,–,–,–,–,–,–,–
Cn1cnc([N+](=O)[O-])c1Sc1nccn1-c1ccccc1,> 100 µM,> 100 µM,> 100 µM,> 100 µM,> 100 µM,> 100 µM,> 100 µM,> 100 µM,–,–,–,–,–,–,–,–,–
CC[C@H]1[C@@H](C)C=C[C@@H](C)N1S(=O)(=O)c1ccc(C)cc1,> 100 µM,> 100 µM,> 100 µM,> 100 µM,> 100 µM,> 100 µM,27.5 µM,> 100 µM,–,–,–,–,–,–,–,–,–
S=c1sc2sc(=S)sc2s1,82.6 µM,72 µM,> 100 µM,> 100 µM,> 100 µM,> 100 µM,81.8 µM,> 100 µM,–,–,–,–,–,–,–,–,–
Cc1cc2c(=O)cc(-c3ccc(C(=O)O)cc3)oc2c(C(N)=O)c1C,> 100 µM,> 100 µM,> 100 µM,> 100 µM,> 100 µM,> 100 µM,> 100 µM,> 100 µM,–,–,–,–,–,–,–,–,–
COC1OC(CO)C(O)C(NC(=O)N(C)N=O)C1O (centres undefined),> 100 µM,> 100 µM,> 100 µM,> 100 µM,> 100 µM,> 100 µM,> 100 µM,> 100 µM,–,–,–,–,–,–,–,–,–
CN1C(=O)CNS1(=O)=O,> 100 µM,> 100 µM,–,> 100 µM,> 100 µM,> 100 µM,> 100 µM,> 100 µM,–,–,–,–,–,–,–,–,–
Cc1cc2c(=O)cc(-c3ccc(Cl)c(Cl)c3)oc2c(C(=O)O)c1C,> 100 µM,> 100 µM,> 100 µM,> 100 µM,> 100 µM,> 100 µM,> 100 µM,> 100 µM,–,–,–,–,–,–,–,–,–
Cc1cn2c(/C=N/NC3=NCCN3)c(-c3ccc(Cl)c([N+](=O)[O-])c3)nc2s1,–,–,> 50 µM,–,1.9 µM,2.45 µM,1.44 µM,2.46 µM,1.57 µM,0.778 µM,1.43 µM,0.872 µM,1.12 µM,1.5 µM,3.97 µM,0.715 µM,0.941 µM
CC1=CC=C2C(C)(C)CC[C@@H]3OC(=O)[C@H]1[C@]23C,> 100 µM,> 100 µM,> 100 µM,> 100 µM,> 100 µM,> 100 µM,> 100 µM,> 100 µM,–,–,–,–,–,–,–,–,–
O=C(O)COc1ccc2c3c1C(=O)CCC3CO2 (centres undefined),–,> 100 µM,> 100 µM,> 100 µM,> 100 µM,> 100 µM,> 100 µM,> 100 µM,–,–,–,–,–,–,–,–,–
O=C1C2=C(c3ccccc31)C(c1ccccc1Cl)NC(=S)N2 (centres undefined),> 100 µM,> 100 µM,> 100 µM,> 100 µM,> 100 µM,> 100 µM,> 100 µM,> 100 µM,–,–,–,–,–,–,–,–,–
C=CCC1=C2CCCCC2CCC1=O (centres undefined),> 100 µM,> 100 µM,> 100 µM,> 100 µM,> 100 µM,> 100 µM,> 100 µM,> 100 µM,–,–,–,–,–,–,–,–,–

# — PubChem BioAssay (NCI)
